Source: PubChem BioAssay AID256 (DTP/NCI, 2004)
Where “and” joins values, the source holds several entries; their conditions need not be identical. Equal entries are not always repeated. Inconclusive results and toxic doses are left out. How the source made its calls: active means survival T/C of 150% or more; inactive means T/C below 125% in these data.

System: CD2F1 mice, L1210 leukemia ip, survival T/C
Experiment: NCI In Vivo Anticancer Drug Screen. Data for tumor model L1210 Leukemia (intraperitoneal) in CD2F1 (CDF1) mice
Conditions: endpoint: mean survival time, higher = longer survival
Method in brief: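 Antitumor effect is scored in animals hosting a serially transplanted tumor. Values compare compound-dosed animals against vehicle-only controls as a simple quotient.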

[1] = dose: 100.0 mg/kg/injection, schedule: Q01DX009 (ip), vehicle: saline with Tween-80
[2] = dose: 200.0 mg/kg/injection, schedule: Q01DX009 (ip), vehicle: saline with Tween-80
[3] = dose: 100.0 mg/kg/injection, schedule: Q04DX003 (ip), vehicle: saline
[4] = dose: 200.0 mg/kg/injection, schedule: Q04DX003 (ip), vehicle: saline
[5] = dose: 100.0 mg/kg/injection, schedule: Q01DX001 (ip), vehicle: saline
[6] = dose: 200.0 mg/kg/injection, schedule: Q01DX001 (ip), vehicle: saline
[7] = dose: 400.0 mg/kg/injection, schedule: Q01DX001 (ip), vehicle: saline
[8] = dose: 100.0 mg/kg/injection, schedule: Q01DX001 (ip), vehicle: saline with Tween-80
[9] = dose: 200.0 mg/kg/injection, schedule: Q01DX001 (ip), vehicle: saline with Tween-80
[10] = dose: 400.0 mg/kg/injection, schedule: Q01DX001 (ip), vehicle: saline with Tween-80
[11] = dose: 50.0 mg/kg/injection, schedule: Q01DX009 (ip), vehicle: saline
[12] = dose: 100.0 mg/kg/injection, schedule: Q01DX009 (ip), vehicle: saline
[13] = dose: 200.0 mg/kg/injection, schedule: Q01DX009 (ip), vehicle: saline
[14] = dose: 100.0 mg/kg/injection, schedule: Q04DX003 (ip), vehicle: saline with Tween-80
[15] = dose: 200.0 mg/kg/injection, schedule: Q04DX003 (ip), vehicle: saline with Tween-80
[16] = dose: 400.0 mg/kg/injection, schedule: Q04DX003 (ip), vehicle: saline with Tween-80
[17] = dose: 50.0 mg/kg/injection, schedule: Q01DX009 (ip), vehicle: saline with Tween-80
[18] = dose: 100.0 mg/kg/injection, schedule: Q04DX002 (ip), vehicle: saline with Tween-80
[19] = dose: 200.0 mg/kg/injection, schedule: Q04DX002 (ip), vehicle: saline with Tween-80

Measured: T/C

O=C(CCc1ccc(O)cc1)c1c(O)cc(O)cc1O
inactive: dose: 50.0 mg/kg/injection, schedule: Q01DX009 (ip), vehicle: saline + alcohol 110 % of control | dose: 100.0 mg/kg/injection, schedule: Q01DX009 (ip), vehicle: saline + alcohol 96 % of control | dose: 200.0 mg/kg/injection, schedule: Q01DX009 (ip), vehicle: saline + alcohol 89 % of control | dose: 400.0 mg/kg/injection, schedule: Q01DX009 (ip), vehicle: saline + alcohol 98 % of control

CCCC1CC[N-]CC1.CCCC1CC[N-]CC1.CCCC1CC[N-]CC1.CCCC1CC[N-]CC1.CS(C)=O.CS(C)=O.[Cl-].[Cl-].[Cl-].[Cl-].[Cl][Rh][Cl].[Rh+3]
inactive: dose: 6.25 mg/kg/injection, schedule: Q01DX009 (ip), vehicle: water 98 % of control | dose: 12.5 mg/kg/injection, schedule: Q01DX009 (ip), vehicle: water 112 % of control | dose: 25.0 mg/kg/injection, schedule: Q04DX003 (ip), vehicle: water 120 % of control

CCOC(=O)Nc1cc(C(F)(F)F)cc(C(F)(F)F)c1
inactive: [1] 94 % of control | [2] 94 % of control | dose: 400.0 mg/kg/injection, schedule: Q01DX009 (ip), vehicle: saline with Tween-80 96 % of control

CC(=O)OC1CCC(C(C)(C)C)CC1 (stereo not drawn)
inactive: [3] 102 % of control | [4] 95 % of control | dose: 400.0 mg/kg/injection, schedule: Q04DX003 (ip), vehicle: saline 96 % of control

CNc1ccc(C(=O)O)cc1C(F)(F)F
inactive: [5] 102 % of control | [6] 101 % of control | [7] 102 % of control

CCN(CC)CCCC(C)NC(C)CCCN(CC)CC (stereo not drawn)
inactive: dose: 25.0 mg/kg/injection, schedule: Q01DX009 (ip), vehicle: Klucel (hydroxypropylcellulose) (HPC) 95 % of control | dose: 50.0 mg/kg/injection, schedule: Q01DX009 (ip), vehicle: Klucel (hydroxypropylcellulose) (HPC) 95 % of control

Nc1nc(=S)c2n[nH]nc2[nH]1
inactive: dose: 25.0 mg/kg/injection, schedule: Q01DX001 (ip), vehicle: saline with Tween-80 102 % of control | dose: 50.0 mg/kg/injection, schedule: Q01DX001 (ip), vehicle: saline with Tween-80 104 % of control

O=c1oc2ccc(Cl)cc2c(Nc2ccccc2)c1Cl
inactive: [8] 93 % of control | [9] 93 % of control | [10] 90 % of control

CC1=CC(=O)OC1CC(=O)O (stereo not drawn)
inactive: [11] 97 % of control | [12] 97 % of control | [13] 103 % of control

CCOC(=O)CC1OCCO1
inactive: [14] 98 % of control | [15] 103 % of control | [16] 101 % of control

CC1(CO)CCCC2(C)C3=C(CCCC3)CCC12 (stereo not drawn)
inactive: dose: 50.0 mg/kg/injection, schedule: Q04DX003 (ip), vehicle: saline with Tween-80 97 % of control | [14] 101 % of control | [15] 97 % of control

CC1=CSCC(=O)N1
inactive: [14] 101 % of control | [15] 98 % of control | [16] 108 % of control

O=c1[nH]c(=S)[nH]c(-c2ccccc2)c1Cc1c(O)ccc2ccccc12
inactive: [5] 101 % of control | [6] 100 % of control | [7] 97 % of control

CC(CCC(=O)O)C1CCC2C3C(O)CC4CC(O)CCC4(C)C3CC(O)C12C (stereo not drawn)
inactive: [8] 96 % of control | [9] 100 % of control | [10] 96 % of control

Cc1cc(C=O)c(C)n1-c1ccc(C(=O)O)cc1
inactive: [17] 101 % of control | [1] 93 % of control | [2] 101 % of control

COc1ccc(C2OC23CC(C)(C)c2ccccc2C3=O)cc1 (stereo not drawn)
inactive: dose: 100.0 mg/kg/injection, schedule: Q01DX009 (ip), vehicle: other 107 % of control | dose: 200.0 mg/kg/injection, schedule: Q01DX009 (ip), vehicle: other 100 % of control | dose: 400.0 mg/kg/injection, schedule: Q01DX009 (ip), vehicle: other 91 % of control

O=C(O)c1cccc2c1oc1ccccc12
inactive: [18] 94 % of control | [19] 94 % of control | dose: 400.0 mg/kg/injection, schedule: Q04DX002 (ip), vehicle: saline with Tween-80 102 % of control

CN1CC=C(N2CCOCC2)CC1
inactive: dose: 25.0 mg/kg/injection, schedule: Q04DX003 (ip), vehicle: saline 109 % of control | dose: 50.0 mg/kg/injection, schedule: Q04DX003 (ip), vehicle: saline 103 % of control | [3] 103 % of control and 109 % of control

CCOc1ccc(NC(=S)N(C)C)cc1
inactive: [17] 94 % of control | [1] 94 % of control | [14] 89 % of control | [2] 90 % of control | [15] 96 % of control

CC(C)(SC(c1ccccc1)(c1ccccc1)c1ccccc1)C(N)C(=O)O (stereo not drawn)
inactive: dose: 25.0 mg/kg/injection, schedule: Q01DX009 (ip), vehicle: saline 106 % of control | [11] 103 % of control

CN(C)CCCCO
inactive: [11] 98 % of control | [12] 98 % of control | [3] 95 % of control | [13] 97 % of control | [4] 96 % of control

CN1CC2C3CCC(C3)C2(C)C1O (stereo not drawn)
inactive: dose: 50.0 mg/kg/injection, schedule: Q04DX002 (ip), vehicle: saline with Tween-80 103 % of control | [18] 103 % of control | [19] 87 % of control
